The numbers were not newly measured in patent US7060435B1, “Genotyping cytochrome expression” (Janssen Pharmaceutica, priority 1998, dated 2006), which cites them from elsewhere.

Where only a bound is given, the exact number is not on record here.

The target of the data set is CYP3A4 and CYP3A5 (Homo sapiens, UniProt P08684). The settings on record: samples containing only CYP3A4.
Chain of CYP3A4 and CYP3A5 (P08684 2-503): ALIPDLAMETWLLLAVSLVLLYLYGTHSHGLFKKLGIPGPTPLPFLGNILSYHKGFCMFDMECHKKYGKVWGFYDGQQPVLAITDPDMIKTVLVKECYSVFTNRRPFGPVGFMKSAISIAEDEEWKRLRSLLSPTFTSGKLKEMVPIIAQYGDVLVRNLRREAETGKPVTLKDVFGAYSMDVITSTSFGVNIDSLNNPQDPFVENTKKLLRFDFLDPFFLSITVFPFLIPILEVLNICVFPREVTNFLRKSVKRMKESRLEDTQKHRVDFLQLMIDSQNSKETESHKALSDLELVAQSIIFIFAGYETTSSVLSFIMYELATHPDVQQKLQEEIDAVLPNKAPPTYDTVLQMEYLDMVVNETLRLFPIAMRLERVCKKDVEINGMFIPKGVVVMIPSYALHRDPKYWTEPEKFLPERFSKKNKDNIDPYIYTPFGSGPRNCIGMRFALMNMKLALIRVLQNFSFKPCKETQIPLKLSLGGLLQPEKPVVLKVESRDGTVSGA

As for `Cc1ncc2n1-c1ccc(Cl)cc1C(c1ccccc1F)=NC2` [midazolam], the 1-OHM/4-OHM ratio was below 4.
